# Measurements as given in PubChem BioAssay AID1996.
# Conditions: buffer; pH 7.4; 200.0 µM
row,Structure (SMILES),solubility kinetic [µg/mL]
1,CCc1cccc(NS(=O)(=O)c2ccc3c(c2)NC(=O)CC(=O)N3)c1,> 53.9
2,O=C1NC(=S)N(C(=O)c2ccc(F)cc2)/C1=C/c1cccnc1,2
3,O=C(CSc1ncccn1)NCc1cccs1,> 39.8
4,CC1=C(C(=O)Nc2ccccc2)S(=O)(=O)CCO1,38
5,COc1ccc2c(C)cc(SCC(=O)NC3CCCCC3)nc2c1,1.3
6,Cc1cc(C)cc(NC(=O)CCN2C(=O)c3ccccc3C2=O)c1,2.5
7,Cc1ccc(NC(=O)C2CCCN2C(=O)NC2CCCCC2)cc1F (stereo not given),0.9
8,O=C(CN1C(=O)C2C3CCC(C3)C2C1=O)OCC(=O)c1ccccc1 (stereo not given),48.1
9,CCOCCCNC(=O)c1cc2c(=O)n3ccccc3nc2s1,46.4
10,Cc1ccc(C(=O)C(C)Sc2nnc(N)s2)cc1 (stereo not given),> 41.9
11,Cc1cc(NCCOCCO)n2c(nc3ccccc32)c1C#N,> 46.6
12,CCC(C)NC(=O)c1ccc(NC(=O)C2=C(C)OCCS2)cc1 (stereo not given),> 50.2
13,Cc1noc(NS(=O)(=O)c2ccc(NC(=O)c3cccc(S(=O)(=O)Nc4ccccc4F)c3)cc2)c1C,71.3
14,CC(NC(=O)c1ccco1)c1nc(-c2ccccc2)no1 (stereo not given),31.7
15,O=C(O)C(Cc1ccc(O)cc1)N1C(=O)C2CCCCC2C1=O (stereo not given),> 47.6
16,COc1cccc2cc(C(N)=O)oc12,> 28.7
17,CN(Cc1ccccc1)C(=O)COc1ccc2ccccc2c1,< 0.7
18,CCCN(C(=O)CSc1ccccc1C(=O)O)C1CCS(=O)(=O)C1 (stereo not given),> 55.7
19,CC(C)N(Cc1ccccc1)C(=O)COC(=O)c1cnc(Cl)c(Cl)c1,33.9
20,CCS(=O)CC(=O)Nc1c(-c2ccccc2)oc2ccccc2c1=O (stereo not given),44.8

row,Structure (SMILES),solubility kinetic [µg/mL]
1,COc1ccc2c(c1)c(C(=O)CN1CCc3ccccc3C1)c(C)n2C,29.6
2,COc1ccc2oc(=O)c(N3C(=O)c4ccccc4C3=O)cc2c1,1.2
3,Cc1ccc(C(=O)NCC(=O)Nc2ccc(F)c(F)c2F)cc1,2.3
4,COc1cccc(C(=O)N2CCOCC2)c1,32.5
5,CCCc1cc(C(=O)Nc2cc(Cl)ccc2O)no1,0.6
6,c1ccc(-n2cnc3ccccc32)nc1,26.3
7,Cn1cc([N+](=O)[O-])cc1-c1nc2ccccc2n1C,> 38.4
8,COc1ccc2c(c1)CCc1c-2nc2ccccc2c1N1CCOCC1,5.5
9,CCOCCCNCc1cc(Br)ccc1OCC.Cl,> 52.9
10,OCCC1CN(CCCc2ccccc2)CCN1Cc1ccccc1 (stereo not given),> 50.8
11,CCCN(CC(=O)Nc1ccccc1OC)C(=O)c1ccccn1,> 49.1
12,CCNc1nc(OC)nc(N(OC)S(=O)(=O)c2ccc(C)cc2)n1,> 53
13,CNc1ncnc2sc(-c3ccccc3)cc12,4.3
14,CS/C(=C(/C#N)S(=O)(=O)c1ccc(Cl)cc1)N1CCOCC1,49.7
15,CC(=O)c1c(-c2ccc(C)cc2)nc2c3ccccc3ccn12,< 0.3
16,O=C1CNC(=S)N1CCCc1ccccc1,> 35.1
17,Cc1ccccc1NCCC(=O)Nc1ccc(F)cc1,> 40.8
18,CC(=O)NCCC(=O)Nc1nc(-c2c[nH]c3ccccc23)cs1,42.9
19,CNP(=O)(Oc1ccccc1)OC12CC3CC(CC(C3)C1)C2 (stereo not given),> 48.2
20,CCOc1ccc(C(C)=O)cc1Cn1ccsc1=N.Cl,> 46.9

row,Structure (SMILES),solubility kinetic [µg/mL]
1,O=C(COc1ccc(Cl)cc1Br)OCC(=O)c1ccc[nH]1,6
2,CNC(=S)N1CCc2cc(OC)c(OC)cc2C1,> 40
3,CC(=O)c1cc2c(cc1NC(=O)Cc1ccsc1)OCO2,10.5
4,Cc1csc(NC(=O)CSc2nncc(=O)n2N)n1,> 44.8
5,CCn1cnc2cc(NCc3ccccc3Cl)ccc21,> 42.9
6,CN(C)c1nc(-c2ccccc2)c2cc(Cl)ccc2n1,1
7,O=C(CN1CCOCC1)NNc1c2ccccc2nc2ccccc12,> 50.5
8,CCN(C(=O)c1cccs1)C1CCS(=O)(=O)C1 (stereo not given),> 41
9,COc1ccc(CCNCC(=O)Nc2ccc(OC(F)F)cc2)cc1,34.4
10,O=C(Nc1ncccc1Cl)c1cc2ccccc2o1,11.4
11,CCn1c(SCC(=O)N2CCOCC2)nnc1-c1ccco1,> 48.4
12,O=C(CSc1cc(Cl)ccc1Cl)NC1CC1,37.7
13,Cc1c(Cl)cccc1NC(=S)NC1CCCC1,7.5
14,O=C(O)CSC(=S)N1CCCC1,26.7
15,CC1CCCC(NC(=O)CSc2ccc(F)cc2)C1C (stereo not given),2.8
16,Cc1ccc(S(=O)(=O)c2c[nH]c3cc4c(cc3c2=O)OCO4)cc1,2
17,CC(C)(C)c1ccc(/C=C(\C#N)C(=O)NCCN2CCOCC2)cc1,30.9
18,Cc1nc2ccccn2c1C(=O)NN=C1CCN(C)CC1,> 42.8
19,OCCN1CNC(=S)NC1,22.8
20,CCCCn1c(O)c(C(C)=NCCc2c[nH]c3ccccc23)c(=O)[nH]c1=O,0.4
